According to PubChem BioAssay AID248 (DTP/NCI, 2004):
Where “and” joins values, the source holds several entries; their conditions need not be identical. Identical values can stand only once. Inconclusive results and toxic doses are left out. No stated cut-off is given here; in the data, active means T/C of 150% or more; inactive means T/C below 125%.

Tested on: L1210 leukemia ip in BDF1 mice, survival T/C
Assay: NCI In Vivo Anticancer Drug Screen. Data for tumor model L1210 Leukemia (intraperitoneal) in B6D2F1 (BDF1) mice
Settings: endpoint: mean survival time, higher = longer survival
Procedure, shortened: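 Ratio derived from survival: compound-dosed mice over vehicle-dosed mice, all bearing a transplantable tumor.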

[1] = dose: 100.0 mg/kg/injection, schedule: Q01DX009 (ip), vehicle: saline
[2] = dose: 100.0 mg/kg/injection, schedule: Q04DX002 (ip), vehicle: Klucel (hydroxypropylcellulose) (HPC)
[3] = dose: 200.0 mg/kg/injection, schedule: Q04DX002 (ip), vehicle: Klucel (hydroxypropylcellulose) (HPC)
[4] = dose: 200.0 mg/kg/injection, schedule: Q04DX003 (ip), vehicle: saline
[5] = dose: 400.0 mg/kg/injection, schedule: Q01DX001 (ip), vehicle: saline
[6] = dose: 100.0 mg/kg/injection, schedule: Q01DX001 (ip), vehicle: Klucel (hydroxypropylcellulose) (HPC)
[7] = dose: 200.0 mg/kg/injection, schedule: Q01DX001 (ip), vehicle: Klucel (hydroxypropylcellulose) (HPC)
[8] = dose: 400.0 mg/kg/injection, schedule: Q01DX001 (ip), vehicle: Klucel (hydroxypropylcellulose) (HPC)
[9] = dose: 50.0 mg/kg/injection, schedule: Q01DX009 (ip), vehicle: saline with Tween-80
[10] = dose: 100.0 mg/kg/injection, schedule: Q01DX009 (ip), vehicle: saline with Tween-80
[11] = dose: 100.0 mg/kg/injection, schedule: Q04DX003 (ip), vehicle: saline with Tween-80
[12] = dose: 200.0 mg/kg/injection, schedule: Q01DX009 (ip), vehicle: saline with Tween-80
[13] = dose: 200.0 mg/kg/injection, schedule: Q04DX003 (ip), vehicle: saline with Tween-80
[14] = dose: 100.0 mg/kg/injection, schedule: Q01DX009 (ip), vehicle: Klucel (hydroxypropylcellulose) (HPC)
[15] = dose: 200.0 mg/kg/injection, schedule: Q01DX009 (ip), vehicle: Klucel (hydroxypropylcellulose) (HPC)
[16] = dose: 50.0 mg/kg/injection, schedule: Q01DX009 (ip), vehicle: Klucel (hydroxypropylcellulose) (HPC)
[17] = dose: 100.0 mg/kg/injection, schedule: Q01DX001 (ip), vehicle: carboxymethylcellulose (CMC)
[18] = dose: 200.0 mg/kg/injection, schedule: Q01DX001 (ip), vehicle: carboxymethylcellulose (CMC)
[19] = dose: 400.0 mg/kg/injection, schedule: Q01DX001 (ip), vehicle: carboxymethylcellulose (CMC)

Measured: T/C

COc1ccc(C(=O)N/N=C/c2cccc(OC)c2OC)cc1
inactive: dose: 45.0 mg/kg/injection, schedule: Q01DX009 (ip), vehicle: saline 98 % of control | dose: 65.0 mg/kg/injection, schedule: Q01DX009 (ip), vehicle: saline 98 % of control | dose: 85.0 mg/kg/injection, schedule: Q04DX003 (ip), vehicle: saline 93 % of control | [1] 102 % of control | [2] 104 % of control and 105 % of control | dose: 130.0 mg/kg/injection, schedule: Q04DX003 (ip), vehicle: saline 93 % of control | dose: 150.0 mg/kg/injection, schedule: Q01DX009 (ip), vehicle: saline 95 % of control | dose: 175.0 mg/kg/injection, schedule: Q01DX001 (ip), vehicle: saline 104 % of control | dose: 175.0 mg/kg/injection, schedule: Q04DX002 (ip), vehicle: saline 91 % of control | [3] 101 % of control and 104 % of control | [4] 93 % of control | dose: 265.0 mg/kg/injection, schedule: Q01DX001 (ip), vehicle: saline 107 % of control | dose: 265.0 mg/kg/injection, schedule: Q04DX002 (ip), vehicle: saline 102 % of control | dose: 300.0 mg/kg/injection, schedule: Q04DX003 (ip), vehicle: saline 102 % of control | [5] 96 % of control | dose: 400.0 mg/kg/injection, schedule: Q04DX002 (ip), vehicle: saline 96 % of control | dose: 600.0 mg/kg/injection, schedule: Q01DX001 (ip), vehicle: saline 102 % of control | dose: 600.0 mg/kg/injection, schedule: Q04DX002 (ip), vehicle: saline 106 % of control

CCS(=O)(=O)c1ccc2nnnn2n1
inactive: dose: 6.25 mg/kg/injection, schedule: Q04DX003 (ip), vehicle: saline 103 % of control | dose: 12.5 mg/kg/injection, schedule: Q04DX003 (ip), vehicle: saline 100 % of control | dose: 25.0 mg/kg/injection, schedule: Q04DX003 (ip), vehicle: saline 112 % of control

CC1=C(C)CC(C(=O)c2ccccc2)=C(C(=O)c2ccccc2)C1
inactive: [6] 95 % of control | [7] 90 % of control | [8] 90 % of control

CN1N=C([P+](c2ccccc2)(c2ccccc2)c2ccccc2)CC1(c1ccccc1)c1ccccc1
inactive: dose: 75.0 mg/kg/injection, schedule: Q01DX001 (ip), vehicle: saline 103 % of control | dose: 150.0 mg/kg/injection, schedule: Q01DX001 (ip), vehicle: saline 100 % of control

CCCCCCCCCCCCCCCCCC(=O)OCCC(C)CCCC(C)C (stereo not given)
inactive: dose: 100.0 mg/kg/injection, schedule: Q04DX003 (ip), vehicle: other 96 % of control | dose: 200.0 mg/kg/injection, schedule: Q04DX003 (ip), vehicle: other 98 % of control | dose: 400.0 mg/kg/injection, schedule: Q04DX003 (ip), vehicle: other 88 % of control

Clc1ccc2scc3c4ccccc4nc-3c2c1
inactive: dose: 100.0 mg/kg/injection, schedule: Q04DX003 (ip), vehicle: acetone 102 % of control

S=C([S-])[P+](C1CCCCC1)(C1CCCCC1)C1CCCCC1
inactive: [9] 97 % of control | [10] 97 % of control | [11] 97 % of control | [12] 97 % of control | [13] 87 % of control

c1ccc(COc2ccnc(SCc3ccccc3)n2)cc1
inactive: [6] 90 % of control | [14] 95 % of control | [7] 95 % of control | [15] 93 % of control | [8] 100 % of control

Cc1cc(C(=O)O)c2cc(Br)ccc2n1
inactive: dose: 25.0 mg/kg/injection, schedule: Q01DX009 (ip), vehicle: Klucel (hydroxypropylcellulose) (HPC) 100 % of control | [16] 98 % of control | [14] 96 % of control

O=c1ccsc2ccccc12
inactive: dose: 25.0 mg/kg/injection, schedule: Q01DX001 (ip), vehicle: saline with Tween-80 103 % of control | dose: 50.0 mg/kg/injection, schedule: Q01DX001 (ip), vehicle: saline with Tween-80 97 % of control | dose: 100.0 mg/kg/injection, schedule: Q01DX001 (ip), vehicle: saline with Tween-80 105 % of control and 92 % of control

COC1OC(CCl)C(OC(=O)c2ccccc2)C(OC(=O)c2ccccc2)C1OS(=O)(=O)c1ccc(C)cc1 (stereo not given)
inactive: dose: 75.0 mg/kg/injection, schedule: Q04DX002 (ip), vehicle: Klucel (hydroxypropylcellulose) (HPC) 87 % of control | dose: 150.0 mg/kg/injection, schedule: Q04DX002 (ip), vehicle: Klucel (hydroxypropylcellulose) (HPC) 87 % of control | dose: 300.0 mg/kg/injection, schedule: Q04DX002 (ip), vehicle: Klucel (hydroxypropylcellulose) (HPC) 97 % of control

CCC1(N)COC(c2ccccc2)OC1 (stereo not given)
inactive: [16] 109 % of control | [14] 88 % of control

CC(=O)CC(=O)Nc1ccc(Cl)cc1Cl
inactive: [14] 100 % of control | dose: 100.0 mg/kg/injection, schedule: Q04DX003 (ip), vehicle: Klucel (hydroxypropylcellulose) (HPC) 98 % of control | [15] 102 % of control | dose: 200.0 mg/kg/injection, schedule: Q04DX003 (ip), vehicle: Klucel (hydroxypropylcellulose) (HPC) 91 % of control | dose: 400.0 mg/kg/injection, schedule: Q01DX009 (ip), vehicle: Klucel (hydroxypropylcellulose) (HPC) 98 % of control | dose: 400.0 mg/kg/injection, schedule: Q04DX003 (ip), vehicle: Klucel (hydroxypropylcellulose) (HPC) 93 % of control

O=[N+]([O-])C12CCC(c3ccccc31)c1ccccc12
inactive: dose: 100.0 mg/kg/injection, schedule: Q04DX002 (ip), vehicle: gum acacia 103 % of control | dose: 200.0 mg/kg/injection, schedule: Q04DX002 (ip), vehicle: gum acacia 101 % of control | dose: 400.0 mg/kg/injection, schedule: Q04DX002 (ip), vehicle: gum acacia 92 % of control

Cc1c(F)cccc1NCC(=O)NN
inactive: [2] 101 % of control | [3] 115 % of control

CN=NCc1ccccc1
inactive: dose: 90.0 mg/kg/injection, schedule: Q04DX002 (ip), vehicle: saline with Tween-80 106 % of control | dose: 100.0 mg/kg/injection, schedule: Q04DX002 (ip), vehicle: saline with Tween-80 108 % of control and 122 % of control | dose: 133.0 mg/kg/injection, schedule: Q04DX002 (ip), vehicle: saline with Tween-80 120 % of control | dose: 200.0 mg/kg/injection, schedule: Q04DX002 (ip), vehicle: saline with Tween-80 106 % of control and 111 % of control | dose: 300.0 mg/kg/injection, schedule: Q04DX002 (ip), vehicle: saline with Tween-80 117 % of control

O=C(O)c1cc2ccc(O)cc2oc1=O
inactive: [17] 94 % of control | [18] 94 % of control | [19] 97 % of control

CCC1(CC)NC(=O)NC1=O
inactive: dose: 50.0 mg/kg/injection, schedule: Q04DX003 (ip), vehicle: saline 102 % of control | [1] 99 % of control | dose: 100.0 mg/kg/injection, schedule: Q04DX003 (ip), vehicle: saline 105 % of control | dose: 200.0 mg/kg/injection, schedule: Q01DX009 (ip), vehicle: saline 98 % of control | [4] 102 % of control | dose: 400.0 mg/kg/injection, schedule: Q01DX009 (ip), vehicle: saline 102 % of control | dose: 400.0 mg/kg/injection, schedule: Q04DX003 (ip), vehicle: saline 103 % of control

CCC(CC)c1cccc2c(C(CC)CC)cccc12
inactive: dose: 100.0 mg/kg/injection, schedule: Q01DX001 (ip), vehicle: saline 98 % of control | dose: 200.0 mg/kg/injection, schedule: Q01DX001 (ip), vehicle: saline 96 % of control | [5] 96 % of control

CC(=O)Nc1cccc2ccccc12
inactive: [11] 97 % of control | [13] 101 % of control | dose: 400.0 mg/kg/injection, schedule: Q04DX003 (ip), vehicle: saline with Tween-80 100 % of control

CC(O)c1ccc2c(c1)Cc1ccccc1-2 (stereo not given)
inactive: dose: 50.0 mg/kg/injection, schedule: Q01DX001 (ip), vehicle: carboxymethylcellulose (CMC) 104 % of control | [17] 91 % of control | [18] 91 % of control | [19] 91 % of control

CC(=O)Nc1cccc(S(=O)(=O)F)c1
inactive: [9] 100 % of control | [10] 105 % of control | [12] 88 % of control
